According to publication PMC12217481, “Structure and mechanism of taniborbactam inhibition of the cefepime-hydrolyzing, partial R2-loop deletion Pseudomonas-derived cephalosporinase variant PDC-88” (Antimicrobial Agents and Chemotherapy, 2025):
Converted amounts (≈) assume the structure as drawn. Where two headings read alike, the source gives them in different places.

Legend:
[1] = tested on: E. coli DH10B/pTU628 (PDC-91); experiment: Broth microdilution MIC, isogenic E. coli expressing PDC-91; format: cell-based; details: Escherichia coli
Experimental: (§1) Genetic constructs used for minimum inhibitory concentration (MIC) testing were designed by Venatorx Pharmaceuticals and codon-optimized for use in E. coli and synthesized by Twist Bioscience as described previously ([9]). […] DH10B cells expressing an empty pET24a(+) vector (Novagen) were also grown, and the plasmid purified. Both pCR4-TOPO-PDC-88 and empty pET24a(+) were cut with BamHI and NdeI, the digests run on low-melting point agarose gels, and the bands of interest excised and ligated to yield a PDC-88 expressing pET24a(+) construct with the His tag removed. The PDC-3 expression construct was created in a similar manner but starting with a previously described pBC SK(−) vector ([42]). The final plasmids were grown in E. coli DH10B cells and purified.
(§2) Modal broth microdilution MICs (or median broth microdilution MICs where appropriate) were determined in accordance with Clinical and Laboratory Standards Institute (CLSI) M07 guidelines ([43]). Isogenic E. coli DH10B cells expressing the abovementioned plasmid-encoded PDC constructs were used. […] CLSI quality control strains Escherichia coli NCTC 13353, E. coli ATCC 35218, and Klebsiella pneumoniae ATCC 700603 were used during testing ([24]).

[2] = tested on: PDC-88; experiment: Spectrophotometric β-lactam hydrolysis (progress curves, steady-state kinetics) by PDC-88; format: biochemical, Pseudomonas aeruginosa; details: cefepime as substrate
Experimental: (§3) In order to determine the impact of the PDC-88 variant on hydrolysis, we determined hydrolysis progress curves for PDC-3, PDC-88, and a strongly hydrolyzing comparator (NDM-1 or PER-2) for cefepime (FEP, Fig. 3A), ceftazidime (CAZ, Fig. 3B), ceftolozane (TOL, Fig. 3C), and aztreonam (ATM, Fig. 3D).
(§4) β-Lactamase kinetic and inhibitor constants were determined using an Agilent 8453 UV-Visible Spectrophotometer to record progress curves and determine initial rates and other kinetic parameters as appropriate. Reactions were carried out in 1× phosphate-buffered saline (PBS) (pH 7.4) at room temperature in a 0.2 cm path-length quartz cuvette (Hellma Analytics). Reads were taken every 10 s to minimize UV-mediated background hydrolysis.
(§5) The extinction coefficients used were: nitrocefin, Δε482 = 17,400 M^−1 cm^−1, and cefepime, Δε260 = −10,000 M^−1 cm^−1.
(§6) The kinetic constants KM and Vmax were determined using a nonlinear least-squares regression of the data to the Henri-Michaelis-Menten equation (equation 1) in Origin Version 2020b (OriginLab, Northampton, MA), where v is the velocity of the reaction; Vmax is the theoretical maximum velocity; KM is the Michaelis constant; and [S] is the substrate concentration: […]

[3] = target: T1, PDC-88 (Pseudomonas aeruginosa, UniProt P24735, DEL316-317/G27D/G391A/T105A/V205L/V356I); experiment: as above; format: biochemical
T1 construct: NdeI 5′-[…]-3ʹ and BamHI 5ʹ-[…]-3ʹ; His tag removed) (N); made in house; host or cells: E. coli BL21-CodonPlus (DE3)-RP, pET24a(+)
Experimental: as §3, §4, §5, §6

[4] = tested on: P. aeruginosa isolates; details: 200 well-characterized P. aeruginosa isolates; cited from earlier work
[5] = target: T2, PDC-3 (Pseudomonas aeruginosa, UniProt P24735, T105A); experiment: Spectrophotometric β-lactam hydrolysis (progress curves, steady-state kinetics) by PDC-3; format: biochemical
T2 construct: The PDC-3 expression construct was created in a similar manner but starting with a previously described pBC SK(−) vector; made in house; host or cells: E. coli BL21-CodonPlus (DE3)-RP, pET24a(+)
Experimental: as §3, §4, §5, §6

[6] = tested on: E. coli DH10B/pTU627 (PDC-90); experiment: Broth microdilution MIC, isogenic E. coli expressing PDC-90; format: cell-based; details: Escherichia coli
Experimental: as §1, §2

[7] = target: T2, PDC-3; experiment: Timed ESI-MS of acyl-enzyme formation, PDC-3; format: biochemical; details: timed ESI-MS, 1 to 30 min (ATM to 60 min)
Experimental: Timed ESI-MS experiments allow tracking of the reaction over time and determination of product modification, enabling the elucidation of mechanistic detail. Time courses were collected for both PDC-3 and PDC-88 with FEP (Fig. 4), CAZ (Fig. S1), TOL (Fig. S2), and ATM (Fig. S3). Substrate modification (here, loss of the R2 group) was determined based on differences between masses of apo and acyl-enzyme peaks (Fig. S4). […] Based on the differences in mass between the apo enzyme peaks, the acyl-enzyme peaks, and the molecular masses of each substrate, the mass of the adducts was determined and used to predict any portion of the substrate molecule that might be lost during the reaction (Fig. S4). As expected ([26][–][28]), all three cephalosporin antibiotics (FEP, CAZ, and TOL) lost their R2 groups during the reaction, while ATM (the sole monobactam) maintained its initial mass.
Five micrograms of PDC-3 or PDC-88 was incubated at the indicated molar ratio (1:2 to 1:100 PDC:β-lactam) in a total volume of 20 µL in 1× PBS at pH 7.4 at room temperature for the duration of the indicated time points. Reactions were quenched with the addition of 10 µL acetonitrile and added to 1 mL of 0.1% formic acid in water.
Data were collected using a Waters Synapt G2-Si quadrupole time-of-flight (Q-TOF) mass spectrometer and Waters Acquity UPLC BEH C18 1.7 µm column (2.1 by 100 mm). MassLynx V4.1 was used to deconvolute protein peaks. The tune settings for each sample were as follows: capillary voltage of 3.5 kV, sampling cone voltage of 35 V, source offset of 35 V, source temperature of 100°C, desolvation temperature of 500°C, cone gas flow rate of 100 L/h, desolvation gas flow rate of 800 L/h, and nebulizer bar at 6.0. Mobile phase A was 0.1% formic acid in water. Mobile phase B was 0.1% formic acid in acetonitrile. The mass accuracy of this system is ±5 Da.

[8] = tested on: E. coli DH10B/pTU629 (PDC-92); experiment: Broth microdilution MIC, isogenic E. coli expressing PDC-92; format: cell-based; details: Escherichia coli
Experimental: as §1, §2

[9] = tested on: E. coli NCTC 13353; experiment: Broth microdilution MIC, CLSI quality control strain; format: cell-based; details: Escherichia coli
Experimental: as §2

[10] = FEP hydrolysis by PDC-88, 1× PBS pH 7.4, room temperature
[11] = FEP hydrolysis by PDC-3, 1× PBS pH 7.4, room temperature

## CO/N=C(\C(=O)N[C@@H]1C(=O)N2C(C(=O)[O-])=C(C[N+]3(C)CCCC3)CS[C@H]12)c1csc(N)n1 [FEP, cefepime]
[1]; read-out: MIC FEP AVI
  MIC: 0.5 µg/mL (≈ 1.04 µM)
[1]; read-out: MIC FEP TZB
  MIC: 32 µg/mL (≈ 66.6 µM)
[1]; E. coli DH10B/pTU628 (PDC-91), FEP with TAN at constant 4 µg/mL, read-out: MIC FEP TAN
  MIC: 0.5 µg/mL (≈ 1.04 µM)
[1]; E. coli DH10B/pTU628 (PDC-91), read-out: MIC FEP Alone
  MIC: 32 µg/mL (≈ 66.6 µM)
[2]
  decrease of KM, PDC-88 compared to PDC-3: 12.8 fold
  decrease of kcat, PDC-88 compared to PDC-3: 1.6 fold
  higher catalytic efficiency (kcat/KM) of PDC-88 compared to PDC-3: approximately 8.3 fold
[2]; listed as cefepime
  higher catalytic efficiency (kcat/KM) of PDC-88 compared to PDC-3: 8.3 fold
[3]; [10]
  Km: 16 ± 1 µM
  kcat: 0.16 ± 0.01 s⁻¹
[3]; PDC-88, over 900 s, compared to PDC-3
  hydrolysis progress curve: increased hydrolysis
[4]
  susceptibility of isolates: 1.5%
[5]; [11]
  Km: 205 ± 9 µM
  kcat: 0.25 ± 0.02 s⁻¹
[5]; PDC-3, over 900 s, versus UV-mediated background
  hydrolysis progress curve: slightly above background
[6]; read-out: MIC FEP AVI
  MIC: 0.5 µg/mL (≈ 1.04 µM)
[6]; read-out: MIC FEP TZB
  MIC: 32 µg/mL (≈ 66.6 µM)
[6]; E. coli DH10B/pTU627 (PDC-90), FEP with TAN at constant 4 µg/mL, * median value reported, read-out: MIC FEP TAN
  MIC: 0.5 µg/mL (≈ 1.04 µM)
[6]; E. coli DH10B/pTU627 (PDC-90), read-out: MIC FEP Alone
  MIC: 64 µg/mL (≈ 133 µM)
[7]
  acyl-enzyme complex formation and deacylation: did not form an acyl-enzyme complex
[8]; read-out: MIC FEP AVI
  MIC: 0.5 µg/mL (≈ 1.04 µM)
[8]; read-out: MIC FEP TZB
  MIC: 32 µg/mL (≈ 66.6 µM)
[8]; E. coli DH10B/pTU629 (PDC-92), FEP with TAN at constant 4 µg/mL, read-out: MIC FEP TAN
  MIC: 0.25 µg/mL (≈ 0.52 µM)
[8]; E. coli DH10B/pTU629 (PDC-92), read-out: MIC FEP Alone
  MIC: 64 µg/mL (≈ 133 µM)
[9]; NCTC13353, read-out: MIC FEP Alone
  MIC: 64 µg/mL (≈ 133 µM)
[9]; NCTC13353, read-out: MIC FEP TAN
  MIC: 0.12 µg/mL (≈ 0.25 µM)
